A short description of data set [1]: In vitro plasma protein binding. Type of data set: in vitro ADME.
The test system of data set [2] is rat formalin model of pain. As to the kind of experiment: Formalin test (formalin-induced flinching). Type of data set: in vivo. The following applies: for Decrease in formalin flinching: phase 2 (10 to 40 min), percent of vehicle; for Analgesic efficacy: rat formalin model, significant (p < 0.05) decrease in flinching at a dose without a reduction in open field movement that obviated the result; for Reduction in formalin flinching, result in words: rat formalin test. How it is done: Formalin-induced flinching was measured using the Automated Nociception Analyzer (ANA) (University Anesthesia Research & Development Group, La Jolla, CA). Rats were habituated to the ANA testing chambers for at least 30 minutes prior to the formalin injection. At test time, each rat was removed from the testing chamber and gently wrapped in a towel. 50 μL of 2.5% formalin solution was injected into the dorsal surface of the left hind paw with a 30 gauge needle. A small metal band was then affixed to the plantar side of the injected paw with one drop of super glue. The animal was then unwrapped from the towel, placed back in the testing chamber, and flinching behavior was scored for 40 minutes by the ANA software. While minimized, non-painful paw movement from the natural activity of an alert animal could be erroneously binned by the automated recording system as a nociceptive behavior. These behaviors are not subtracted from the flinching total. […] Total flinching behavior was used as the endpoint of the assay.

A further data set relates to naïve rats. As to the kind of experiment: Open field activity (basic movement). Type of data set: in vivo, rat. Conditions: formalin-naïve rats. As to the method: Basic movement was measured using the Photobeam Activity System Open Field (San Diego Instruments, San Diego, CA) equipped with 48 infrared photocell emitters and detectors. Photobeams used to measure vertical movement were positioned 14 cm above the test chamber floor. Each testing chamber was made of Plexiglas (41 x 41 x 36 cm) and was devoid of any bedding. At the beginning of the test session, each animal was placed in a separate testing chamber and the room lights were turned off. Basic movement was measured for 30 minutes.

For another data set, the target named is T1, hNav1.7 (Homo sapiens, UniProt Q15858).
T1 construct: expressed in transfected cells; host or cells: HEK 293
Briefly: Manual whole cell patch clamp electrophysiology on HEK 293 cells stably expressing hNav1.7. Type of data set: cell-based. How it is done: Except as indicated, recordings to determine potency of aminotriazines on Nav1.7 were made with manual electrophysiology. HEK 293 cells stably expressing hNav1.7 were voltage-clamped using the whole cell patch clamp configuration. Cells were plated onto 35 mm culture dishes 0–24 hours before recording, and tissue culture medium was exchanged for external solution containing (in mM) 140 NaCl, 5 KCl, 2 CaCl2, 1 MgCl2, 10 HEPES, 11 glucose, pH 7.4 with NaOH. Patch pipettes were pulled from borosilicate glass capillaries (1.2 mm outer diameter, World Precision Instruments, Sarasota, FL) with a P-97 pipette puller (Sutter Instruments, Novato, CA) and backfilled with internal solution containing (in mM) 62.5 CsCl, 75 CsF, 2.5 MgCl2, 5 EGTA, 10 HEPES, pH 7.25 with CsOH. Pipette resistances were between 1.5 and 2.0 MΩ. After formation of the whole-cell configuration, cells were lifted off the dish bottom with the patch pipette and positioned directly in front of a microarray of glass tubes (each tube internal diameter ~ 1 mm) with each tube containing continuously flowing control or test solution. A full current-voltage relation was recorded from each cell, and cells with poor space clamp as indicated by discontinuous I-V relation or by prolonged or nonexponential current kinetics were discarded. Solution switching was accomplished by moving the microarray with computer control via an RSC-160 rapid solution exchanger (Bio-Logic, Claix, France). Currents were recorded with an Axopatch 200B patch-clamp amplifier driven by pCLAMP software, filtered (4-pole Bessel) at 5 kHz during acquisition, and digitized at 20 kHz using pClamp9.2. Whole cell capacitance and series resistance were compensated at 0%- 80%, and reported voltages were uncorrected for liquid junction potentials. Recordings were made at room temperature. Concentration-response curves were taken by measuring inward Nav1.7 current every five to six seconds with a 10 ms to 20 ms depolarization to near the peak of the current-voltage relation, before and after steady-state inhibition by a given concentration of aminotriazine. For concentration response curves on partially inactivated channels, holding voltage was set to produce 20% fractional inactivation. […] Occasionally two compound concentrations were tested in parallel without resetting the voltage, if inhibition was rapid and the current level steady. […] Concentration response curves on non-inactivated channels generally were taken with multiple concentrations added in series without washoff of the previous concentration.
On the technique in general: In patch-clamp work, channel activity is measured electrically.

For a further data set, the target named is rat Nav1.7 (Rattus norvegicus, UniProt O08562). As to the kind of experiment: PatchXpress automated electrophysiology on rat Nav1.7. Type of data set: cell-based. Conditions: 20%-inactivated rat Nav1.7.
The nature of data set [3]: Terminal plasma and brain concentrations after behavioral testing. Type of data set: in vivo, rat. Conditions: for Kp: brain and plasma, ratio of concentrations measured following the formalin test; for concentration at 160 min / Terminal plasma concentration: mean; for concentration at 160 min: n = 4; for Terminal plasma concentration: n = 8; for Effective [plasma]: mean terminal plasma concentration at the lowest effective dose in the rat formalin test.

The mark [4] stands for this setting: 30 mg/kg p.o., listed as compound A.
[5] abbreviates: 60 mg/kg p.o., listed as compound A.
Where [6] appears, read: 10 mg/kg p.o., negative value = increase.
[7] abbreviates: IC50 (μM) 20%-inactivated, 20%-inactivated human Nav1.7, holding voltage set to produce 20% fractional inactivation.
[8] abbreviates: non-inactivated human Nav1.7, holding voltage -140 mV or occasionally -120 mV, peak concentration tested 10 μM, read-out: IC50 (μM) Non-inactivated.

Several values for one entry are separate records, joined by “and”; a condition that tells them apart may be missing. Identical values can stand only once. Like-named read-outs stand apart in the source and are kept apart here.

rat Nav1.7, sequence (O08562 whole entry): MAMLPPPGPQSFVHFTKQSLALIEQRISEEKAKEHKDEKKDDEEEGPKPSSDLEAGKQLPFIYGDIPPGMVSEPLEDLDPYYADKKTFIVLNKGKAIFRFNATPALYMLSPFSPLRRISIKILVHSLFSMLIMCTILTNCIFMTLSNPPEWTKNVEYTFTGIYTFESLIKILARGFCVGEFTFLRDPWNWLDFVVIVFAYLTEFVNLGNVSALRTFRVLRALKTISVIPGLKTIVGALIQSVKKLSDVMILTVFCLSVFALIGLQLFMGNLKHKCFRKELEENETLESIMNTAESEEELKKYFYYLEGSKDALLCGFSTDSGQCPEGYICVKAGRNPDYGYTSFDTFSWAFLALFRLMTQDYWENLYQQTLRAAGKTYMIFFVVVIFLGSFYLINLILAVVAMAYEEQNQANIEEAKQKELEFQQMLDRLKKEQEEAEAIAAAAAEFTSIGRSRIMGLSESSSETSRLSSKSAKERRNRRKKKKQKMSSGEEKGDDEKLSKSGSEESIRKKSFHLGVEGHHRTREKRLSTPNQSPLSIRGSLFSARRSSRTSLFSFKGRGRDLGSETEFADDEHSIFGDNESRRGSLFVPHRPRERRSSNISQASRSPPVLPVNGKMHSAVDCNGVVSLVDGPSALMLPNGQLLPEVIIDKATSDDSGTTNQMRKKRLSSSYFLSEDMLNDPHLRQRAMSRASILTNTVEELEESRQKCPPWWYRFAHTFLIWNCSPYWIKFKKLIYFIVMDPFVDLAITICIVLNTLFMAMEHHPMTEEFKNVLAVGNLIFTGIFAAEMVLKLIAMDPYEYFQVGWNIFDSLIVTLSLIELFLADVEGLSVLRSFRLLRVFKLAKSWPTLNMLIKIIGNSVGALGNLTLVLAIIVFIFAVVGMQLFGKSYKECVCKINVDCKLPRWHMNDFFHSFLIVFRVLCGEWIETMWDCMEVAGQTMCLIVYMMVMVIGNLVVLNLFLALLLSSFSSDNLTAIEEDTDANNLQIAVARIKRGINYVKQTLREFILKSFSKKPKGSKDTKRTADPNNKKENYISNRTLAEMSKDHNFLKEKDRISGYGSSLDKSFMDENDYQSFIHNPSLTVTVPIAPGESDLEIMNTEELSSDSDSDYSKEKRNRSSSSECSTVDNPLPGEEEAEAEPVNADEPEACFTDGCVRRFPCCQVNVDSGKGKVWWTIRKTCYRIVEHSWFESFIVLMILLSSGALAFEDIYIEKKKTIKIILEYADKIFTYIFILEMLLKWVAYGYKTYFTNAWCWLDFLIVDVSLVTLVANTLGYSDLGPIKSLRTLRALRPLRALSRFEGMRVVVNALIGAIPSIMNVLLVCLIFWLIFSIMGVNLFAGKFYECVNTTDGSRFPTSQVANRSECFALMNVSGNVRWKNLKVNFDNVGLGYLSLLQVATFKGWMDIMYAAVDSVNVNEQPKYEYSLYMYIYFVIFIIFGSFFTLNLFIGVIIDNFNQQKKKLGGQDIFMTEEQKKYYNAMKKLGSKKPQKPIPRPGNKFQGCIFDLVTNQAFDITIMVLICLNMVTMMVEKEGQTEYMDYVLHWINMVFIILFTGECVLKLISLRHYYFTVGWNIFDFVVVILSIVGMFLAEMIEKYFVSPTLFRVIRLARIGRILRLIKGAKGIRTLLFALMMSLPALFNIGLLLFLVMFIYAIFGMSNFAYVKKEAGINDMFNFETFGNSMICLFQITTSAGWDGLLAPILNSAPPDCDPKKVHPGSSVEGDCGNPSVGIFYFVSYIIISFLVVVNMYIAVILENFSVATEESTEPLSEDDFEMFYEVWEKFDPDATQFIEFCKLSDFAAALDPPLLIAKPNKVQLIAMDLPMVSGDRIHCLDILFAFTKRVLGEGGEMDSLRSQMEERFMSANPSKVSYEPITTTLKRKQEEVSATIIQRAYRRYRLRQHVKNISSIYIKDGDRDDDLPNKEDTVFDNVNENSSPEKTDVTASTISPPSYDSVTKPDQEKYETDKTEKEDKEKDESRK
T1 sequence (Q15858 whole entry): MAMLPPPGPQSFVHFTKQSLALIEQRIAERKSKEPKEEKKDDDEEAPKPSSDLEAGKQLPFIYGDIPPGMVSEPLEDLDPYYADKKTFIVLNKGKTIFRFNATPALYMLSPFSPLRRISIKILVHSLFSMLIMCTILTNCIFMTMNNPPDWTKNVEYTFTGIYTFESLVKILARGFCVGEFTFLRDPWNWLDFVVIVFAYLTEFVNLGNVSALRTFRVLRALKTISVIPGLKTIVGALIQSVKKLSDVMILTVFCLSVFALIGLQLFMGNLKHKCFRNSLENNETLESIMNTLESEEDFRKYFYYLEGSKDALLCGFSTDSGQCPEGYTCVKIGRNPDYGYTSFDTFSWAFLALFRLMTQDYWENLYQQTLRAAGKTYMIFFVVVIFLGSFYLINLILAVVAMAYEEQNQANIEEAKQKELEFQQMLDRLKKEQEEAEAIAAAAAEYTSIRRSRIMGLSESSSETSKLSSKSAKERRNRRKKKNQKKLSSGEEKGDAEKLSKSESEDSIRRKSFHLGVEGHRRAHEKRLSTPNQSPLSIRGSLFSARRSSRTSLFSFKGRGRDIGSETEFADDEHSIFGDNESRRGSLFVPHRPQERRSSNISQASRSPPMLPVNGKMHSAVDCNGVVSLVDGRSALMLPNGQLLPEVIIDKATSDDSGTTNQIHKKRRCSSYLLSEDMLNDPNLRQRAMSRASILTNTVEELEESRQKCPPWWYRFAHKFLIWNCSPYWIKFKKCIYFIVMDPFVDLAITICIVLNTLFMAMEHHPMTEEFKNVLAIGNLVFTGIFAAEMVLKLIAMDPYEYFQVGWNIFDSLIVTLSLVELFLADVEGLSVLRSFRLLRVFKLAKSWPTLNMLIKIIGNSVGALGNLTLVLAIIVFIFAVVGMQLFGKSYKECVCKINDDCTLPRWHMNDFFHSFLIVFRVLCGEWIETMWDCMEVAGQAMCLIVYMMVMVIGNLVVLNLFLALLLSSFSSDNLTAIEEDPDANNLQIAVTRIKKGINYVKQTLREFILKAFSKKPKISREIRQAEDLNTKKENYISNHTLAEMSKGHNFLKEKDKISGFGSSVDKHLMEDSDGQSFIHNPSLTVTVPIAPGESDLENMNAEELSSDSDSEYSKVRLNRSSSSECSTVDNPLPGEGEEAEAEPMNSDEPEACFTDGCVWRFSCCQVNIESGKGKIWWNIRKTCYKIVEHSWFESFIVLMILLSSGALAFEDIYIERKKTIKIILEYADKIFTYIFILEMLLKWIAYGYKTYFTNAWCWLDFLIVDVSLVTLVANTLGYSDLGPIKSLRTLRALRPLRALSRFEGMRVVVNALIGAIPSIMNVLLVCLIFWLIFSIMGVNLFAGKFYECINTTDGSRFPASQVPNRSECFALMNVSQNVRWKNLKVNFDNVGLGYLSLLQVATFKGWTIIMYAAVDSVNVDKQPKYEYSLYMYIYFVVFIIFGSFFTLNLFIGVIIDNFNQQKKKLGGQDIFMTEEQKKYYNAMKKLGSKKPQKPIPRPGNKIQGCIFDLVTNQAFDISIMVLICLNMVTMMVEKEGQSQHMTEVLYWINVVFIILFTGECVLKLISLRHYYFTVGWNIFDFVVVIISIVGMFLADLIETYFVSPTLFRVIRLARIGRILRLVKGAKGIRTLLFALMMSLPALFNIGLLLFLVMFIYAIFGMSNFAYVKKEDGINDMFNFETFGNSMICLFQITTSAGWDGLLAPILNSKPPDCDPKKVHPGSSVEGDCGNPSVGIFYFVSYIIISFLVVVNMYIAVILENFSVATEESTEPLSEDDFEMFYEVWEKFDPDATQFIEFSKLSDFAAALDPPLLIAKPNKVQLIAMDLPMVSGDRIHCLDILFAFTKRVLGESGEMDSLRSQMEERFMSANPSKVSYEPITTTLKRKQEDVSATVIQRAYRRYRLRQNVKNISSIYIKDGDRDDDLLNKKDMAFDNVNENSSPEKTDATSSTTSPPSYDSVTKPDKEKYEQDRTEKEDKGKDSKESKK

By fraction unbound is commonly meant the share of the substance not bound to proteins or other matrix. A word on the IC50: it is the concentration that gives 50% inhibition. The term Kp denotes tissue or fluid exposure divided by exposure in the circulation. `CC(=O)Nc1cccc(Nc2ncnc(N3CCC(Oc4ccc(Cl)cc4)CC3)n2)c1C` [Compound A, N-(3-((4-(4-(4-chlorophenoxy)-1-piperidinyl)-1,3,5-triazin-2-yl)amino)-2-methylphenyl)acetamide] gave a fraction unbound in data set [1] of 0.013. For the same molecule, the “Decrease in formalin flinching” value in data set [2] (10 mg/kg p.o.) was 31.4% and 32%; in data set [2] (10 mg/kg p.o., listed as compound A), 32%; in data set [2] (30 mg/kg p.o.), 66.1% and 66%; in data set [2] (setting [4]), 66%; in data set [2] (60 mg/kg p.o.), 85%; in data set [2] (setting [5]), 85% and 84.6%. Also, the Analgesic efficacy result in data set [2] is listed as “Yes”. Also, the “Decrease in basic movement” value is -4.2% in the data set on naïve rats (setting [6]); 13.5% and 14% with naïve rats (30 mg/kg p.o.); 14% in the data set on naïve rats (setting [4]); 46% in the data set on naïve rats (60 mg/kg p.o.); 46% in the data set with naïve rats (setting [5]). Moreover, the concentration for half-maximal inhibition (IC50) against hNav1.7 (setting [7]) is 0.19 µM; on hNav1.7 (setting [8]) it was over 10 µM; against rat Nav1.7, 520 nM. Also, the Kp in data set [3] (rat) was 0.1. Besides, the concentration at 160 min in data set [3] (formalin test, 10 mg/kg p.o.) worked out at 280 nM; in data set [3] (formalin test, 30 mg/kg p.o.), 880 nM; in data set [3] (rat, brain, po, formalin test, 60 mg/kg p.o.), 1540 nM. Further, the Terminal plasma concentration amounted to 3.02 µM in data set [3] (formalin test, 10 mg/kg p.o.); 8.07 µM in data set [3] (formalin test, 30 mg/kg p.o.); 13.5 µM in data set [3] (formalin test, 60 mg/kg p.o.); 2.75 µM in data set [3] (open field test, 10 mg/kg p.o.); 5.53 µM in data set [3] (open field test, 30 mg/kg p.o.); 13.0 µM in data set [3] (open field test, 60 mg/kg p.o.). Further, in data set [3], the “Effective [plasma]” value was determined as 3.02 µM.

For `CC(=O)Nc1cccc(Nc2ncnc(N3CCC(Oc4ccc(Cl)c(C)c4)CC3)n2)c1C` [Compound B, N-(3-((4-(4-(4-chloro-3-methylphenoxy)-1-piperidinyl)-1,3,5-triazin-2-yl)amino)-2-methylphenyl)acetamide], in data set [1], the fraction unbound was 0.006. For the same molecule, the results for the “Decrease in formalin flinching” value in data set [2] (10 mg/kg p.o.), in data set [2] (30 mg/kg p.o.) and in data set [2] (60 mg/kg p.o.) were 17%, 30% and 39%, respectively. For the same molecule, in data set [2], the Analgesic efficacy result is “Yes”. Moreover, the “Reduction in formalin flinching, result in words” value (from here on “Reduction in formalin flinching”) in data set [2] was “statistically significant and plasma concentration-dependent reduction in formalin flinching”. In addition, the results for the “Decrease in basic movement” value in the data set with naïve rats (30 mg/kg p.o.) and in the data set with naïve rats (60 mg/kg p.o.) were 5.6% and 19%, respectively. The IC50 against hNav1.7 (setting [7]) is 0.5 µM; at hNav1.7 (setting [8]) it was over 10 µM; on rat Nav1.7 it was 3500 nM. Moreover, the “Effective [plasma]” value in data set [3] came out at 8.75 µM.

The molecule `CC(=O)Nc1cccc(Nc2ncnc(N3CC(Oc4ccc(F)cc4)C3)n2)c1C` [Compound C, N-(3-((4-(3-(4-fluorophenoxy)-1-azetidinyl)-1,3,5-triazin-2-yl)amino)-2-methylphenyl)acetamide] gave a fraction unbound in data set [1] of 0.164. The “Decrease in formalin flinching” value turned out to be 14% in data set [2] (3 mg/kg p.o.), 35% in data set [2] (10 mg/kg p.o.) and 53% in data set [2] (30 mg/kg p.o.). Besides, the Analgesic efficacy result in data set [2] is reported as “Yes”. Also, the “Reduction in formalin flinching” value in data set [2] is “statistically significant and plasma concentration-dependent reduction in formalin flinching”. For the same molecule, the results for the “Decrease in basic movement” value in the data set with naïve rats (3 mg/kg p.o.), in the data set with naïve rats (setting [6]) and in the data set with naïve rats (30 mg/kg p.o.) were 6.8%, 8.5% and 23%, respectively. Also, the figures for the IC50 against hNav1.7 (setting [7]), at hNav1.7 (setting [8]) and on rat Nav1.7 were 1.3 µM, over 10 µM and 4900 nM, respectively. Besides, the Kp in data set [3] (rat) came out at 0.03. Also, in data set [3], the “Effective [plasma]” value was found to be 3.68 µM.

As for `CC(=O)Nc1cccc(Nc2ncnc(N3CCC(OCc4ccc(F)c(F)c4)CC3)n2)c1C` [Compound D, N-(3-((4-(4-((3,4-difluorobenzyl)oxy)-1-piperidinyl)-1,3,5-triazin-2-yl)amino)-2-methylphenyl)acetamide], in data set [1], the fraction unbound is 0.067. The “Decrease in formalin flinching” value in data set [2] (10 mg/kg p.o.) came to 36%; in data set [2] (30 mg/kg p.o.), 62%; in data set [2] (60 mg/kg p.o.), 83%. The Analgesic efficacy entry in data set [2] is “Yes”. Besides, the “Reduction in formalin flinching” value in data set [2] is “statistically significant and plasma concentration-dependent reduction in formalin flinching”. Moreover, in the data set on naïve rats (10 mg/kg p.o., value in parentheses corresponds to a measured increase), the “Increase in basic movement (in parentheses in the column Decrease in basic movement)” value is listed as “(1.4%)”. Besides, the “Decrease in basic movement” value with naïve rats (30 mg/kg p.o.) was 28%; with naïve rats (60 mg/kg p.o.) it was 50%. Moreover, the results for the IC50 against hNav1.7 (setting [7]), at hNav1.7 (setting [8]) and against rat Nav1.7 were 0.6 µM, over 10 µM and 1700 nM, respectively. The Kp in data set [3] (rat) came out at 0.19. Moreover, in data set [3], the “Effective [plasma]” value turned out to be 1.27 µM.

`CC(=O)Nc1cccc(Nc2ncnc(N3CCC(Oc4ccc(Cl)c(F)c4)CC3)n2)c1C` [Compound G, N-(3-((4-(4-(4-chloro-3-fluorophenoxy)-1-piperidinyl)-1,3,5-triazin-2-yl)amino)-2-methylphenyl)acetamide]: the fraction unbound in data set [1] was 0.006. In data set [2], the Analgesic efficacy entry is “No”. Besides, the “Reduction in formalin flinching” value in data set [2] is on record as “did not achieve statistically significant reversals in formalin flinching”. The figures for the IC50 at hNav1.7 (setting [7]), at hNav1.7 (setting [8]) and against rat Nav1.7 were 0.3 µM, 6.6 µM and 800 nM, respectively. For the same molecule, the concentration ratio (Kp) in data set [3] (rat) came to 0.09.

Take `CC(=O)Nc1cccc(Nc2ncnc(N3CCC(OCc4ccccc4)CC3)n2)c1` [Compound H, N-(3-((4-(4-(benzyloxy)-1-piperidinyl)-1,3,5-triazin-2-yl)amino)phenyl)acetamide]: in data set [2], the Analgesic efficacy entry is given as “No” and the “Reduction in formalin flinching” value is “did not achieve statistically significant reversals in formalin flinching”.

Take `CN1C(=O)CN=C(c2ccccc2)c2cc(Cl)ccc21` [Diazepam, diazepam, reference compound]: in data set [2] (diazepam 10 mg/kg, lowest dose with statistically significant reduction), the “Reduction in formalin-induced flinching” value is 22%.
